Series [1] in a line: High temperature test (stability). It counts as physicochemical. As to conditions: 60° C.; for purity: HPLC. As for the experimental part:
High temperature test: an appropriate amount of sample was put in a weighing bottle in the form of a thin layer of ≤5 mm, under a temperature of 60° C. for 10 days. Samples were took at fifth and tenth day, appearance was observed and purity was detected by HPLC.

The nature of series [2]: High humidity test (stability). It counts as physicochemical. As to conditions: 25° C., RH 90%±5%, HPLC. On the procedure:
High humidity test: an appropriate amount of sample was put in a weighing bottle in the form of a thin layer of ≤5 mm, under a temperature of 25° C. and RH 90%±5% for 10 days. Samples were took at fifth and tenth day, appearance was observed and purity was detected by HPLC.

The conditions of series [3]: dog, in vivo, po, 5 mg/kg.
Procedure: (§1) (3-(4-(dihexylamino)-3-fluorophenyl)-2,6-dimethylpyrimidin-4(3H)-one), crystalline forms of the various salts were filled into capsules, which were administered orally.
(§2) Blood samples were collected at 0.25, 0.5, 1.0, 2.0, 4.0, 6.0, 8.0, 12 and 24 hours after the administration. Standard curve was plotted based on concentrations of the samples in a suitable range, the concentrations of test compounds in plasma samples were determined by using Agilent 6430 LC-MS/MS under MRM mode, and quantitative analysis was performed. Pharmacokinetic parameters were calculated according to drug concentration-time curve using a noncompartmental method by WinNonLin 6.3 software.
Series [4] is described as follows: Pharmacokinetics experiments of the salts, oral capsules in Beagle dogs. The note with it: 5 mg/kg.
Procedure: as §1, §2

Where two headings read alike, the source gives them in different places.

`CCCCCCN(CCCCCC)c1ccc(-n2c(C)nc(C)cc2=O)cc1F.O=C(O)/C=C\C(=O)O` [Example 8, 3-(4-(dihexylamino)-3-fluorophenyl)-2,6-dimethylpyrimidin-4(3H)-one Maleate Crystal-I]: in series [1] (0 d), the appearance entry was “white solid” and the purity was determined as 99.53%. Further, in series [1] (5 d), the purity worked out at 99.49%. In addition, in series [1] (10 d), the purity is given as 99.05%. Further, the purity in series [2] (0 d) is on record as 99.53%. The compound further gave a purity in series [2] (5 d) of 99.51%. The purity in series [2] (10 d) is reported as 99.49%. Besides, in series [3], the AUCINF was 38337.53 ng·h/mL, the AUClast was 5859.22 ng·h/mL, the Cmax amounted to 588 ng/mL and the MRTINF is reported as 155.21 h. In series [3], the T1/2 worked out at 110.28 h, the time of peak concentration (Tmax) worked out at 2 h and the “exposure compared to free compound (I)” value is on record as “relative higher exposure”.

In turn, `CCCCCCN(CCCCCC)c1ccc(-n2c(C)nc(C)cc2=O)cc1F.Cl` [Example 2, 3-(4-(dihexylamino)-3-fluorophenyl)-2,6-dimethylpyrimidin-4(3H)-one Hydrochloride Crystal-II] returned a purity in series [1] (0 d) of 99.85%. This compound yielded a purity in series [1] (5 d) of 99.86%. Further, the purity in series [1] (10 d) is given as 99.83%. In addition, the purity in series [2] (0 d) was 99.85%. In addition, the purity in series [2] (5 d) is 99.86%. The compound also returned a purity in series [2] (10 d) of 99.82%. In series [3], this compound registered an AUCINF of 2820 ng·h/mL, an AUClast of 2940 ng·h/mL, a maximum concentration (Cmax) of 485 ng/mL and an MRTINF of 9.43 h. In addition, in series [3], the T1/2 came out at 9.54 h, the Tmax came to 8.83 h and the “exposure compared to free compound (I)” value is “relative higher exposure”.

Turning to `CCCCCCN(CCCCCC)c1ccc(-n2c(C)nc(C)cc2=O)cc1F` [Compound (I), 3-(4-(dihexylamino)-3-fluorophenyl)-2,6-dimethylpyrimidin-4(3H)-one], in series [4] (male, Beagle, dog, plasma, po), the AUC(0-inf) turned out to be 2320 ng·h/mL, the AUC(0-t) stood at 1730 ng·h/mL, the Cmax was found to be 244 ng/mL and the MRT inf amounted to 23.3 h. Moreover, in series [4] (male, Beagle, dog, plasma, po), the Tmax amounted to 1.17 h and the half-life was 13.8 h.

`CCCCCCN(CCCCCC)c1ccc(-n2c(C)nc(C)cc2=O)cc1F.Cc1ccc(S(=O)(=O)O)cc1` [Example 6, 3-(4-(dihexylamino)-3-fluorophenyl)-2,6-dimethylpyrimidin-4(3H)-one Tosilate Crystal-I]: the purity in series [1] (0 d) is listed as 99.83%. In series [1] (5 d), this compound returned a purity of 99.81%. In series [1] (10 d), this compound displayed a purity of 99.81%. Further, the purity in series [2] (0 d) stood at 99.83%. Further, the purity in series [2] (5 d) was found to be 99.80%. The compound further registered a purity in series [2] (10 d) of 99.83%. Also, in series [4] (male Beagle dogs, oral capsule), the AUCINF came out at 3010 ng·h/mL, the AUClast is 2720 ng·h/mL, the peak concentration (Cmax) is 329 ng/mL and the MRTINF turned out to be 17.5 h. Moreover, in series [4] (male Beagle dogs, oral capsule), the T1/2 came to 17.5 h and the Tmax worked out at 2 h. In addition, in series [4] (male Beagle dogs, oral capsule, conclusion from table 1), the “exposure compared to free compound (I)” value was “relative higher exposure”.

Take `CCCCCCN(CCCCCC)c1ccc(-n2c(C)nc(C)cc2=O)cc1F.Cl` [Example 1, 3-(4-(dihexylamino)-3-fluorophenyl)-2,6-dimethylpyrimidin-4(3H)-one Hydrochloride Crystal-I]: in series [1] (0 d), the purity is 99.81%. In addition, the purity in series [1] (5 d) is 99.80%. This compound came in with a purity in series [1] (10 d) of 99.79%. Besides, in series [2] (0 d), the purity came to 99.81%. The same compound showed a purity in series [2] (5 d) of 99.79%. The same compound gave a purity in series [2] (10 d) of 99.80%. Besides, in series [4] (male Beagle dogs, oral capsule), the AUCINF amounted to 6310 ng·h/mL, the AUClast turned out to be 4470 ng·h/mL, the Cmax came out at 364 ng/mL and the MRTINF is 41.9 h. In addition, in series [4] (male Beagle dogs, oral capsule), the T1/2 is 34.5 h and the Tmax came out at 2.33 h.

These data come from patent publication US10647682B2, “Salts of 2,6-dimethylpyrimidone derivatives and uses thereof” (SUNSHINE LAKE PHARMA CO., LTD., priority 2016, dated 2020).
